Test results as given in patent US8512769B2, “Valerian extract preparation” (priority 2006, dated 2013).

Tested on: male CD rats
Experiment: Forced swimming test (FST) for antidepressive effect
Type: in vivo
Conditions: 1 mg/kg
Excerpt: A more specific test for antidepressive activity is provided by the forced swimming test (FST) developed by Porsolt (Porsolt et al., 1978. Behavioural despair in rats: a new model sensitive to antidepressant treatments, Eur. J. Pharmacol. 47, 379-391).
In a so-called “forced swimming test”, the test animals (rats) are challenged by a stress situation from which they cannot escape by their own efforts. For this purpose, rats are at first left in a water-filled glass cylinder for a time of 15 minutes in a preliminary test (conditioning) one day before the actual test. The filling level is matched to the animals' body weight, so that every animal can support itself with the paws and tail and can keep its nose above water with minimum swimming movements. […] Twenty-four hours after this preliminary test, the test with valerian extract is performed in which the rats are again inserted into the water cylinders and the duration of immobility over a period of 5 minutes is cumulatively recorded.
For testing the valerian formulations on male CD rats, a pretreatment was used for 16 days, and the formulation according to Example 2b) was employed. […] The experiment was recorded by means of a video camera, and the time of immobility of the animals was later detected manually on the screen.

For `CN1C(=O)CN=C(c2ccccc2)c2cc(Cl)ccc21` [Diazepam], the “Shortening of immobility time as compared to the control group” value was 28%.
